From patent US10925858B2, “S-nitrosoglutathione (GSNO) and GSNO reductase inhibitors for use in therapy” (MUSC FOUNDATION FOR RESEARCH DEVELOPMENT, priority 2017, dated 2021)

Columns and labels:
[1] = test system: tight junction proteins (ZO-1, Occludin, Claudin-5); experiment: Real-time PCR, mRNA expression of tight junction proteins in brain microvessels of diabetic mice; assay type: in vivo
Experimental: Male laca mice weighing between 28-32 g were procured from the Central Animal House, Panjab University, Chandigarh. The animals were acclimatized and were fed with standard pellet diet and water ad libitum. The experimental protocols were approved by the Institutional Ethics Committee and were conducted according to Indian National Science Academy (INSA) guidelines for the use and care of experimental animals. The animals were divided into four groups: (i) Control animals received phosphate buffered saline (PBS) throughout the study; (ii) Control+GSNO animals were administered with GSNO 100 μg/kg body weight orally, dissolved in PBS after every 24 h for 8 weeks; (iii) Diabetic animals were injected with STZ at a dose of 40 mg/kg body weight intraperitoneally for 5 days dissolved in 0.1 mol/L citrate buffer, pH 4.5 and Diabetic+GSNO mice were administered GSNO 100 μg/kg body weight orally dissolved in PBS after every 24 h for 8 weeks after the induction of diabetes. Animals were assessed weekly for development of diabetic encephalopathy in terms of memory deficits. All experimental procedures were done on mice at the end of study.
The microvessels were isolated by the method described by Brooks et al., (2005). Brain tissue was homogenized in microisolation buffer (103 mM NaCl, 4.7 mM KCl, 2.5 mM CaCb, 1.2 mM KH2PO4, 1.2 mM MgSO4, 15 mM HEPES, 2.5 mM NaHCO3, 10 mM D-glucose, 1 mM sodium pyruvate and 10 g/L dextran (64,000 mol wt), pH 7.4) and equal amount of 26% (w/v) dextran was added. […]
PCR Total RNA was extracted from microvessels obtained from brain tissue using TriReagent®. […] The concentration of RNA obtained was determined by 260/280 nm ratio using a Nanodrop™ Spectrophotometer (Nanodrop™ 1000, Thermo Scientific®, Waltham, USA). The integrity and overall quality of RNA was evaluated using agarose gel electrophoresis. […] The data obtained was analyzed by the LightCycler 480 Software, Version 1.5. […] Glyceraldehyde-3-phosphate dehydrogenase was used as the reference gene and the relative gene expression was determined using delta-delta Ct method as described by Pfaffl et al., (2002).

passive EAE disease = experiment: Adoptive transfer model of EAE (passive EAE), clinical disease; assay type: in vivo, SJL mice
Experimental: EAE disease was induced in 8- to 10-week-old female SJL mice by immunization with an emulsion (100 μl, subcutaneous) of proteolipid protein peptide (PLP139-151; Peptide International. Louisville, Ky.) and 200 μg of killed Mycobacterium tuberculosis H37Ra (Difco, Detroit, Mich., USA) followed by booster on day 7 as described previously (Nath et al., 2010). The mice additionally received pertussis toxin (Sigma-Aldrich, St. Louis, Mo.; 200 ng/300 μl PBS, intravenous) on day 0 and 3 post-immunization. On the day of immunization, one group of mice received 100 μl phosphate buffered saline (PBS) and the second group of mice received daily GSNO (1.0 mg/kg, 100 μl/PBS) via oral route GSNO was purchased from World Precision Instruments (Sarasota, Fla.) and its concentration was adjusted spectrophotometrically at 334 nm. Individual animals were observed daily for clinical disease severity by an investigator, blinded to experimental treatments, on a 0-5 scale as follows: 0=no abnormality; 1=piloerection, sluggish, 2=limp tail; 2.5=hind limb weakness (legs slip through cage top); 3=hind limb paralysis, 4=hind and forelimb paralysis; and 5=moribund.
At the peak of EAE disease, the mice were sacrificed and CD4+ T cells were purified from draining lymph nodes (DLN) and spleens by CD4+ T cell isolation kit (Miltenyi, Auburn. Calif.). The purified T cells (2.5×10^6 cells/ml) were cultured in 96-well round-bottom microculture plates (Falcon Labware, Oxnard, Calif.) in RPMI-complete media containing RPMI 1640 (Life Technologies, Gaithersburg, Md.), 10% FBS, and 100 μg/ml streptomycin and penicillin (Atlanta Biologicals Norcross, Ga.), 1 mM glutamine, 1 mM nonessential amino acids, and 50 μM 2-mercaptoethanol (Sigma-Aldrich). For skewing of different CD4+ T cell subsets and their expansion, the isolated CD4+ T cells were stimulated with PLP139-151 (5 μg/ml) with IL-2 (10 ng/ml) for TH0, IL-2 (10 ng/ml), rhIL-12p35 (10 ng/ml), and anti-IL-4 (1 μg/ml) for TH1, or recombinant mouse IL-12/23p40 homodimer (10 ng/ml), anti-IFN-γ 1 (μg/ml), anti-IL-4 (1 μg/ml) for TO 17. All cytokines and antibodies were purchased from BD Biosciences (San Diego, Calif.). Following stimulation, the cells were harvested for adoptive transfer of EAE disease and the culture supernatants were collected for analysis of IFN-γ, IL-17, and IL-10 expression by ELISA (Biolegend Cat #430802, 432505, and 431411; San Diego, Calif.).
(20-30×10^6 T cells in 300 μl RPMI media per mouse) were injected to naive SJL female mice (8-10 week old) via intraperitoneal route. The recipient mice were also given two doses of pertussis toxin (200 ng/300 μl of PBS/i.p.) on day 0 and 2 of post immunization. Clinical EAE disease was measured as describe above.

[2] = cortex and hippocampus, diabetic mice + GSNO 100 μg/kg oral 8 weeks, vs diabetic
[3] = daily GSNO treatment of recipient mice

In the case of `N[C@@H](CCC(=O)N[C@@H](CSN=O)C(=O)NCC(=O)O)C(=O)O` [GSNO, S-nitrosoglutathione], the “mRNA expression of claudin-5” value ([1]; GSNO treated diabetic animals) is reported as “no significant change”, the “mRNA expression of ZO-1” value [1, 2] is reported as 2 fold and the “mRNA expression of occludin” value [1, 2] is reported as 2 fold. The “passive EAE disease severity, recipients of T cells from GSNO treated EAE mice treated with GSNO during the disease” value (passive EAE disease; [3]) was “further reduced”, the “passive EAE disease, recipients of T cells from untreated EAE mice treated with GSNO during the disease” value (passive EAE disease; [3]) was “reduced the EAE disease” and the “passive EAE disease after transfer of T cells from GSNO treated EAE mice” value (passive EAE disease; recipients without GSNO, vs T cells from untreated EAE mice) was “significantly delayed and milder disease”. The “passive EAE disease after transfer of TH1 and TH17 skewed T cells from GSNO treated EAE mice” value (passive EAE disease; vs T cells from untreated EAE mice) was “significantly milder EAE disease”.
